{"source": "patent US20230000869A1", "about": "“NOVEL ALK2 INHIBITORS AND METHODS FOR INHIBITING BMP SIGNALING” (The Brigham and Women's Hospital, Inc., priority 2017, published 2023)", "key": {"ACVR2B": {"biological_target": "ACVR2B (Homo sapiens, UniProt Q13705)", "sequence (Q13705 19-512)": "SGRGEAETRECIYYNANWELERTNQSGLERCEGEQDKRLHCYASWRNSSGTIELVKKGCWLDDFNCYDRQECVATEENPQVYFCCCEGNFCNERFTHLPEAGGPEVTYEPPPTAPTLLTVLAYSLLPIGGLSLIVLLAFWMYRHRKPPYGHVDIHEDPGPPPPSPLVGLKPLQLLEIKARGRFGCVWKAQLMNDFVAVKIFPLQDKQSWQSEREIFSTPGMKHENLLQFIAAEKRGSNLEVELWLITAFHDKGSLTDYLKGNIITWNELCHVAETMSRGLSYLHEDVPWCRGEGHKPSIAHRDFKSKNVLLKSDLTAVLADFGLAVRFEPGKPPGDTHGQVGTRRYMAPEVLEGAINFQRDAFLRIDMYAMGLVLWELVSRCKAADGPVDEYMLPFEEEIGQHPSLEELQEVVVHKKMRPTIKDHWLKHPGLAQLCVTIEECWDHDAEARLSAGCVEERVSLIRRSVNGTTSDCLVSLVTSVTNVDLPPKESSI", "test": "LanthaScreen Eu kinase binding assay, BMP type II receptor ACVR2B", "conditions": "10-point titration from 10 μM, 3-fold serial dilution, Life Technologies", "method": "(§1) Kinase Profiling BMP Type II Receptor Experimental Procedure (Life Technologies, 5225 Vernona Road, Madison, Wis. 53744)\n(§2) The measurement of each compound's half maximal inhibitory concentration (IC50) for BMP type II receptors (ACVR2A, ACVR2B, BMPR2 and TGFbR2) was carried out at Life Technologies by using its 10-point titration (starting concentration: 10 μM with 3-fold serial dilution) LanthaScreen™ biochemical kinase assay protocol. For the detailed description of LanthaScreen™ Eu kinase binding assay condition, please see: https://www.thermofisher.com/us/en/home/industrial/pharma-biopharma/drug-discovery-development/target-and-lead-identification-and-validation/kinasebiology/kinase-activity-assays/lanthascreentm-eu-kinas e-binding-assay/lanthascreen-eu-kinase-binding-assay-validation-table.html."}, "TGFb": {"tested_on": "TGFb", "test": "Cell assay HTRF TGFb (Table 15)", "format": "cell-based", "conditions": "read-out: HRTF TGFb (IC50)"}, "BMPR2": {"biological_target": "T1, BMPR2 (Homo sapiens, UniProt Q13873)", "T1 sequence (Q13873 27-1038)": "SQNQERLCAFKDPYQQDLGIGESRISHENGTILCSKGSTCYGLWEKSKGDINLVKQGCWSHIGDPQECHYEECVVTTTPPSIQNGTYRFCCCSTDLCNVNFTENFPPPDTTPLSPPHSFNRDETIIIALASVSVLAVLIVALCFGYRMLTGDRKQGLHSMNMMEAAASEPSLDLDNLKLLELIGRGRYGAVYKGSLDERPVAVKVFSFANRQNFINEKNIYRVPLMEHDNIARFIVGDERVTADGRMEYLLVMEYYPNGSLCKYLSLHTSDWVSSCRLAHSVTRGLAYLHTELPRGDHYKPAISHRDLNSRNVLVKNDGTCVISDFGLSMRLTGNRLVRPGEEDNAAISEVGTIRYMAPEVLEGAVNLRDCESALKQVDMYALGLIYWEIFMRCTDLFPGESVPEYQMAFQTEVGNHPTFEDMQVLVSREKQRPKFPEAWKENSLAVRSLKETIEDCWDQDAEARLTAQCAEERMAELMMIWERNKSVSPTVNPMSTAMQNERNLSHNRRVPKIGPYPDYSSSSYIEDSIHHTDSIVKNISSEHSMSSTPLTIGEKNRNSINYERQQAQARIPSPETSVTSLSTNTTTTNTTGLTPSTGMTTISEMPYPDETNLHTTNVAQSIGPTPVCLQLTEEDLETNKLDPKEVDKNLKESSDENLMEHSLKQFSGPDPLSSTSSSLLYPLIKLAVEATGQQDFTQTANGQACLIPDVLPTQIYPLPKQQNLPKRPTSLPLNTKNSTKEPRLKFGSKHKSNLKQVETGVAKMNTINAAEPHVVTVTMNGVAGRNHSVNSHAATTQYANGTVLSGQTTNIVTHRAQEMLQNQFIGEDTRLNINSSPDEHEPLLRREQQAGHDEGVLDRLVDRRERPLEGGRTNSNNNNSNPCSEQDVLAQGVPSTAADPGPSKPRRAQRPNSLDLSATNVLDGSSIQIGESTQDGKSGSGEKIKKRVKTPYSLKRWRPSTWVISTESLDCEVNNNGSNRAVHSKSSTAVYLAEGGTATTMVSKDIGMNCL", "test": "LanthaScreen Eu kinase binding assay, BMP type II receptor BMPR2", "conditions": "10-point titration from 10 μM, 3-fold serial dilution, Life Technologies", "method": "as §1, §2"}, "TGFβR2": {"biological_target": "TGFβR2 (Homo sapiens, UniProt P37173)", "sequence (P37173 23-567)": "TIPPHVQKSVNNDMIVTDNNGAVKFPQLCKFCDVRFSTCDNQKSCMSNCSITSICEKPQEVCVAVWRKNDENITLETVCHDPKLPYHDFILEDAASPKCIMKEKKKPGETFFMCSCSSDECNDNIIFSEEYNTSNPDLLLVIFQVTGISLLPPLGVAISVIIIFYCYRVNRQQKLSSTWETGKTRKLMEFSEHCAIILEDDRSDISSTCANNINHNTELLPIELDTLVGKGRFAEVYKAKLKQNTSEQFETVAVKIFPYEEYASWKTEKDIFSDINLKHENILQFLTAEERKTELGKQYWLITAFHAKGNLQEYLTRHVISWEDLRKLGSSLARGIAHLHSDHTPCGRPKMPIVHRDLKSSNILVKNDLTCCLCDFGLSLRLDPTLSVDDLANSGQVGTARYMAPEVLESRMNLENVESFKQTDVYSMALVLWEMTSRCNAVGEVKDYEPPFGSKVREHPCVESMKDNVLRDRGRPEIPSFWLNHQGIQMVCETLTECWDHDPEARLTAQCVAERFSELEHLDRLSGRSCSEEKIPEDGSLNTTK", "test": "LanthaScreen Eu kinase binding assay, BMP type II receptor TGFbR2", "conditions": "10-point titration from 10 μM, 3-fold serial dilution, Life Technologies", "text": "(§3) For the detailed description of LanthaScreen™ Eu kinase binding assay condition, please see: https://www.thermofisher.com/us/en/home/industrial/pharma-biopharma/drug-discovery-development/target-and-lead-identification-and-validation/kinasebiology/kinase-activity-assays/lanthascreentm-eu-kinas e-binding-assay/lanthascreen-eu-kinase-binding-assay-validation-table.html."}, "BMP6": {"tested_on": "BMP6", "test": "Cell assay HTRF BMP6 (Table 15)", "format": "cell-based"}, "ACVR2A": {"biological_target": "ACVR2A (Homo sapiens, UniProt P27037)", "sequence (P27037 20-513)": "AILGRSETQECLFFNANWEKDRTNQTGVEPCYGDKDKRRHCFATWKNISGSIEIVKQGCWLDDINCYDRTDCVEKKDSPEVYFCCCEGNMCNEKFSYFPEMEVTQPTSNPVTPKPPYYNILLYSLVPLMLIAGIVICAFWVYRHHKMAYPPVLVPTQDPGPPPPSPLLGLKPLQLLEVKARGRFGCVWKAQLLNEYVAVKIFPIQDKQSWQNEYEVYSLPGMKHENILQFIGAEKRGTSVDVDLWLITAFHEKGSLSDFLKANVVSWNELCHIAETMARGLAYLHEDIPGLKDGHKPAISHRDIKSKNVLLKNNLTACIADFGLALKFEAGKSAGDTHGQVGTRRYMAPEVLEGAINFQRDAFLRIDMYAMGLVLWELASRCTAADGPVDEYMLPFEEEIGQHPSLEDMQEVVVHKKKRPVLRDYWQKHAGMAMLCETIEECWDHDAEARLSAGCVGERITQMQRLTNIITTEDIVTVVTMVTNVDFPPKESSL", "test": "LanthaScreen Eu kinase binding assay, BMP type II receptor ACVR2A", "conditions": "10-point titration from 10 μM, 3-fold serial dilution, Life Technologies", "text": "as §3"}, "TGFβ": {"tested_on": "TGFβ", "test": "Luciferase reporter gene assay for TGFβ activity (HEK293T SBE-Luc SMAD2/3 reporter, TGFβ agonist)", "format": "cell-based", "conditions": "Homo sapiens, HEK-293T, TGFβ 5 ng/mL", "in_short": "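TGFβ activity was measured in HEK293T SBE-Luc cells stimulated with 5 ng/mL TGFβ, at compound 10000-30 nM final. ALK2 activity was measured in C2C12 BRE-Luc cells stimulated with 50 ng/mL BMP6, at compound 1000-0.3 nM final. Compound was preincubated 45 min in 2% FBS medium; after ≥18 h agonist exposure, luminescence was read and inhibition expressed as % signal loss versus background-subtracted agonist controls.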"}}, "data": [{"smiles": "Cc1cc(-c2cnn3cc(N4CCC(N5CCN(C)CC5)CC4)cnc23)c2ccccc2n1", "note": "[Compound 8]", "values": [{"measurement": "IC50", "setting": "ACVR2B", "result": 745, "unit": "nM"}, {"measurement": "IC50", "setting": "TGFb", "result": 2040, "unit": "nM"}, {"measurement": "IC50", "setting": "BMPR2", "result": "> 10000", "unit": "nM"}, {"measurement": "IC50", "setting": "TGFβR2", "result": 191, "unit": "nM"}, {"measurement": "IC50", "setting": "BMP6", "result": 270, "unit": "nM"}, {"measurement": "IC50", "setting": "ACVR2A", "result": 1280, "unit": "nM"}, {"measurement": "IC50", "setting": "TGFβ", "result": 22, "unit": "nM"}]}, {"smiles": "Cc1cc(-c2cnn3cc(N4CCC(N5CCOCC5)CC4)cnc23)c2ccccc2n1", "note": "[Compound 11]", "values": [{"measurement": "IC50", "setting": "TGFβ", "result": 55, "unit": "nM"}]}, {"smiles": "COc1cc2c(-c3cnn4cc(N5CCC(N6CCN(C)CC6)CC5)cnc34)ccnc2cc1F", "note": "[Compound 15, 7-fluoro-6-methoxy-4-(6-(4-(4-methylpiperazin-1-yl)piperidin-1-yl)pyrazolo[1,5-a]pyrimidin-3-yl)quinoline]", "values": [{"measurement": "IC50", "setting": "TGFβ", "result": 284, "unit": "nM"}]}, {"smiles": "Cc1cc(-c2cnn3cc(N4CCC(N5CCNCC5)CC4)cnc23)c2ccccc2n1", "note": "[Compound 34]", "values": [{"measurement": "IC50", "setting": "TGFβ", "result": 27, "unit": "nM"}]}, {"smiles": "c1ccc2c(-c3cnn4cc(-c5ccc(N6CCNCC6)cc5)cnc34)ccnc2c1", "note": "[TRND00262637-13]", "values": [{"measurement": "IC50", "setting": "ACVR2B", "result": 20, "unit": "nM"}, {"measurement": "IC50", "setting": "TGFb", "result": 9290, "unit": "nM"}, {"measurement": "IC50", "setting": "BMPR2", "result": "> 10000", "unit": "nM"}, {"measurement": "IC50", "setting": "TGFβR2", "result": 8.06, "unit": "nM"}, {"measurement": "IC50", "setting": "BMP6", "result": 69, "unit": "nM"}, {"measurement": "IC50", "setting": "ACVR2A", "result": 14.5, "unit": "nM"}]}]}
